Measurements taken from patent US10550117B2, “2-azabicyclo[3.1.0]hexan-3-one derivatives and methods of use” (Genentech, Inc., priority 2016, dated 2020).
pIC50, pKi: −log10 of the molar value.

Tests used:
[1] = target: nuclear factor-kappa B (NF-kB)-inducing kinase (NIK) (Homo sapiens (Human), UniProt Q99558); test: NIK enzyme inhibition assay (Transcreener ADP fluorescence polarization); format: biochemical; settings: for pKi: purified NIK 0.5 nM, 10 μM ATP, Morrison equation, read-out: NIK ADP-FP Ki; for NIK enzyme inhibition, potency in words relative to the other stereoisomers: stereoisomers separated by chiral SFC, qualitative
nuclear factor-kappa B (NF-kB)-inducing kinase (NIK), sequence (Q99558 whole entry): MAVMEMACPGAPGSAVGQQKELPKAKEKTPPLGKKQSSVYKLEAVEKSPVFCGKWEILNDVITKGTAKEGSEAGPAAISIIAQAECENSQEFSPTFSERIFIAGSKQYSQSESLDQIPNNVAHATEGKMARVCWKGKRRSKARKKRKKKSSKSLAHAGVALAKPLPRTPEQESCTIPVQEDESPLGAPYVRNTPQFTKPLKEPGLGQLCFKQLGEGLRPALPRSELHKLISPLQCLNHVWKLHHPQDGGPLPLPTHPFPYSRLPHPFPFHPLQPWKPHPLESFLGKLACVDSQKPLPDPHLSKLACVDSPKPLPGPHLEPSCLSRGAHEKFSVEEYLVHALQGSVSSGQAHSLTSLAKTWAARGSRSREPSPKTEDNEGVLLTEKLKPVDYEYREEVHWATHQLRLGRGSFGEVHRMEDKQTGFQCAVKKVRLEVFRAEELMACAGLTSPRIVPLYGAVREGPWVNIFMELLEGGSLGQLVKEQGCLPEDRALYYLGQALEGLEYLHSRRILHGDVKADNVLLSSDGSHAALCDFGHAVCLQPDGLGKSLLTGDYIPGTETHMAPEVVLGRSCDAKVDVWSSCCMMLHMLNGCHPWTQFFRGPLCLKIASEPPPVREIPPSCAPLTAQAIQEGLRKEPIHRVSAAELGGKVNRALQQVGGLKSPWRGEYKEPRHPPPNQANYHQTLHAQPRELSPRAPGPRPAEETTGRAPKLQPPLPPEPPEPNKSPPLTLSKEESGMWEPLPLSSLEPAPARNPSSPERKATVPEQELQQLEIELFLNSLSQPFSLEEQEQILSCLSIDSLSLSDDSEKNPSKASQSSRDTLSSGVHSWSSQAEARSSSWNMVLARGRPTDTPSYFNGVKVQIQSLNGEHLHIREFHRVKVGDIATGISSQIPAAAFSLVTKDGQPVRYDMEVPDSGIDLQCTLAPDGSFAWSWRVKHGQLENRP
Experimental: The ability of the nuclear factor-kappa B (NF-kB)-inducing kinase (NIK) to catalyze the hydrolysis of adenosine-5′-triphosphate (ATP) was monitored using the Transcreener ADP (adenosine-5′-diphosphate) assay (BellBrook Labs). […] Reactions were quenched by the addition of 20 mM 2,2′,2″,2′″-(ethane-1,2-diyldinitrilo)tetraacetic acid and 0.01% Brij 35. The tracer bound to the antibody was displaced by the ADP generated during the NIK reaction, which causes a decrease in fluorescence polarization that was measured by laser excitation at 633 nm with a Fluorescence Correlation Spectroscopy Plus reader (Evotec AG). Equilibrium dissociation constant (Ki) values for NIK inhibitors are calculated from plots of activity vs. inhibitor concentration using Morrison's quadratic equation that accounts for the potential of tight binding, and by also applying the conversion factor that accounted for competitive inhibition and the concentration of substrate used in the assay relative to its Michaelis constant (Km).

[2] = tested on: REL-A (p65) nuclear translocation in HUVEC; test: REL-A HUVEC nuclear translocation assay (TNF-α stimulated, high content imaging); format: cell-based; settings: Homo sapiens, 2 ng/mL TNF-α
Experimental: (§1) (2) A second set of cell assays used primary human umbilical vein cells (HUVEC) sourced from Lonza to define the selectivity of NIK inhibitors toward inhibition of classical vs. non-classical NF-kB signaling using high content cellular imaging. For the p52 (non-classical NF-kB signaling) nuclear translocation assay, HUVEC were treated with different concentrations of compounds (0.2% DMSO final) in EBM-2 medium (LONZA) containing 2% fetal bovine serum and then stimulated with 300 ng/mL of an anti-lymphotoxin beta receptor antibody (R&D Systems) for 4.5 hours. In the REL-A nuclear translocation assay, HUVEC were incubated with compounds (0.2% DMSO final) for 4 hours 50 minutes in EBM-2 medium containing 2% fetal bovine serum before stimulating them with 2 ng/mL tumor necrosis factor (TNF)-α (R&D Systems) for 10 minutes. Cells were fixed with 4% paraformaldehyde, permeabilized by adding 0.1% Triton X-100 in phosphate buffered saline, and then were incubated with either 2 μg/mL anti-p52 antibody (Millipore) or 400 ng/mL anti-REL-A (p65) antibody (Santa Cruz Biotechnology). Finally, the cells were incubated with an Alexa488-labeled secondary antibody (Invitrogen) and DRAQ5 DNA stain (Biostatus). Imaging was carried out using an Opera reader (Perkin Elmer) and data were analyzed with the aid of Acapella software (Perkin Elmer). The p52 or REL-A translocation into the nucleus was quantified by the ratio of the nuclear to cytoplasmic signal intensity.

[3] = tested on: p52 (non-classical NF-kB signaling) nuclear translocation in HUVEC; test: p52 HUVEC nuclear translocation assay (anti-lymphotoxin beta receptor antibody stimulated); format: cell-based; settings: Homo sapiens, 300 ng/mL anti-lymphotoxin beta receptor antibody
Experimental: as §1

[4] = Liver microsome stability; format: in vitro ADME; settings: for HLM CL (human liver microsome clearance): human liver microsomes; for stability in human liver microsomes versus the corresponding pyrrolidinone comparator compound: qualitative comparison
Experimental: Metabolic stability assays in liver microsomes are conducted with pooled female CD-1 mouse, male Sprague-Dawley rat, male beagle dog, male cynomolgus monkey, and mixed male and female human liver microsomal incubations. The general assay conditions are as follows. Incubation mixtures consisted of liver microsomes (0.5 mg of microsomal protein/ml) and the test compound (1.0 μM) with or without NADPH (1.0 mM) in the potassium phosphate buffer (100 mM; pH 7.4) with a final incubation volume of 0.25 ml. Reactions are initiated by the addition of NADPH or buffer and shaken in a water bath open to the air at 37° C. At times 0, 20, 40, and 60 min, aliquots (50 μl) are removed and added to termination mixtures (100 μl) containing acetonitrile and an internal standard. The samples are then centrifuged for 10 min at 2000 g. The supernatant (90 μl) is removed, combined with 180 μl of water, and analyzed by LC-MS/MS.
Metabolic stability of the test compounds were evaluated in human liver microsomes following known protocols described in Halladay, et al. Drug Metabol. Lett. 2007, 1:67-72.

[5] = Hepatocyte stability; format: in vitro ADME; settings: human hepatocytes; for stability in the human hepatocyte assay versus the corresponding pyrrolidinone comparator compound: qualitative comparison
Experimental: General. Metabolic stability assays in hepatocytes are conducted using cryopreserved pooled female CD-1 mouse, male Sprague-Dawley rat, male beagle dog, male cynomolgus monkey, and mixed male and female human hepatocytes (CellzDirect). Vials of hepatocytes are thawed rapidly in a water bath set at 37° C. and then are diluted with Dulbecco's modified Eagle's medium (DMEM), pH 7.4. Cells are isolated by centrifugation, pooled, and resuspended in DMEM at 1.0 million viable cells/ml. Membrane integrity of the cells is assessed by trypan blue exclusion. The test compound is dissolved in dimethyl sulfoxide at a final concentration of 10 mM. This test compound stock is diluted further to 2 μM in DMEM (125 μl) before the addition of an equal volume of the 10^6 cells/ml cell suspension. The test compound (final incubation concentration of 1.0 μM with 0.1% dimethyl sulfoxide) and cells (final concentration of 0.5×10^6 cells/ml) are incubated at 37° C. in a 95% air/5% CO2 atmosphere for 3 h. Aliquots (50 μl) are removed at 0, 1, 2, and 3 hours and added to termination mixtures (100 μl) containing acetonitrile and an internal standard. The samples are then centrifuged for 10 min at 2000 g. The supernatant (90 μl) is removed, combined with 180 μl of water, and analyzed by LC-MS/MS.
Metabolic stability of the test compounds were evaluated also in human hepatocytes, following protocols described in Hallifax, et al. Drug Metabol. Disposition, 2005, 33:1852-1858.

[6] = tested on: REL-A (p65) nuclear translocation in HeLa cells; test: REL-A HeLa nuclear translocation assay (TNF-α stimulated, high content imaging); format: cell-based; settings: Homo sapiens, 10 ng/mL TNF-α
Experimental: (§2) (3) A third set of cell assays are used to define the selectivity of NIK inhibitors toward inhibition of classical vs. non-classical NF-kB signaling and rely on quantification of the nuclear translocation of p52 (NF-kB2) and REL-A (p65) using high content cellular imaging. For the p52 (non-classical NF-kB signaling) nuclear translocation assay, HeLa cells are treated with different concentrations of compounds (0.2% DMSO final) in medium containing 10% fetal bovine serum and then stimulated with 100 ng/mL of an anti-lymphotoxin beta receptor antibody (R&D Systems) for 5 hours. In the REL-A nuclear translocation assay, HeLa cells are incubated with compounds (0.2% DMSO final) for 4.5 hours in medium containing 10% fetal bovine serum before stimulating them with 10 ng/mL tumor necrosis factor (TNF)-α (R&D Systems) for 30 minutes. Cells are fixed with 4% paraformaldehyde, permeabilized by adding 0.1% Triton X-100 in phosphate buffered saline, and then are incubated with either 2 μg/mL anti-p52 antibody (Millipore) or 400 ng/mL anti-REL-A (p65) antibody (Santa Cruz Biotechnology). Finally, the cells are incubated with an Alexa488-labeled secondary antibody (Invitrogen) and DRAQ5 DNA stain (Biostatus). Imaging is carried out using an Opera reader (Perkin Elmer) and data are analyzed with the aid of Acapella software (Perkin Elmer). The p52 or REL-A translocation into the nucleus is quantified by the ratio of the nuclear to cytoplasmic signal intensity. […] The test compounds have the corresponding inhibitory values (IC50) for NIK REL-A (p65) and p52 Translocation Assays as set forth in Table B2.

[7] = tested on: p52 (NF-kB2) nuclear translocation in HeLa cells; test: p52 HeLa nuclear translocation assay (anti-lymphotoxin beta receptor antibody stimulated); format: cell-based; settings: Homo sapiens, 100 ng/mL anti-lymphotoxin beta receptor antibody
Experimental: as §2

Row | SMILES | pKi [1] | NIK enzyme inhibition, potency in words relative to the other stereoisomers [1] | pIC50 [2] | pIC50 [3] | HLM CL (human liver microsome clearance) [4] [mL/min/kg] | stability in human liver microsomes versus the corresponding pyrrolidinone comparator compound [4] | Hep CL (human hepatocyte clearance) [5] [mL/min/kg] | stability in the human hepatocyte assay versus the corresponding pyrrolidinone comparator compound [5] | pIC50 [6] | pIC50 [7]
1 | CN1C(=O)[C@](O)(C#Cc2cccc(-c3nc(C(N)=O)c4ccccn34)c2)[C@H]2C[C@H]21 [Compound 5, 3-(3-(((1R,4R,5S)-4-hydroxy-2-methyl-3-oxo-2-azabicyclo[3.1.0]hexan-4-yl)ethynyl)phenyl)imidazo[1,5-a]pyridine-1-carboxamide] | 8.33 | most potent NIK enzyme inhibitor among the 4 stereoisomers | < 5.30 | 5.52 | 3.5 | better stability | 1.6 | better stability |  | 
2 | COc1ccn2c(C(N)=O)nc(-c3cccc(C#C[C@]4(O)CCN(C)C4=O)c3)c2c1 [Compound C-4, reference compound] |  |  | < 5.30 |  | 15 |  | 9.9 |  | < 6.00 | 8.18
3 | CN1CC[C@@](O)(C#Cc2cccc(-c3nc(C(N)=O)n4ccccc34)c2)C1=O [Compound C-3] |  |  | < 5.30 |  |  |  |  |  | < 4.70 | 7.53
4 | CN1C(=O)[C@](O)(C#Cc2cccc(-n3nc(C(N)=O)c4cccnc43)c2)[C@@H]2C[C@@H]21 [Compound 2, 1-(3-(((1S,4R,5R)-4-hydroxy-2-methyl-3-oxo-2-azabicyclo[3.1.0]hexan-4-yl)ethynyl)phenyl)-1H-pyrazolo[3,4-b]pyridine-3-carboxamide] | 8.37 | second most potent NIK enzyme inhibitor among the 4 stereoisomers | < 5.30 | 6.55 | 7.7 |  | 13 |  |  | 
5 | CN1C(=O)[C@](O)(C#Cc2cccc(-c3nc(C(N)=O)n4ccccc34)c2)[C@H]2C[C@H]21 [Compound 3] |  |  | < 5.30 | 7.60 | 11 | better stability | 9.0 | better stability |  | 
6 | CN1C(=O)[C@](O)(C#Cc2cccc(-n3nc(C(N)=O)c4cccnc43)c2)[C@H]2C[C@H]21 [Compound 1, 1-(3-(((1R,4R,5S)-4-hydroxy-2-methyl-3-oxo-2-azabicyclo[3.1.0]hexan-4-yl)ethynyl)phenyl)-1H-pyrazolo[3,4-b]pyridine-3-carboxamide] | 9.06 | most potent NIK enzyme inhibitor among the 4 stereoisomers | < 5.30 | 7.26 | 5.8 | better stability | 0.8 | better stability |  | 
